Source: the SangsterLogP compilation

details: not given

Row | logP | Compound
1 | 2.91 | CNc1c(Cl)cccc1Cl
2 | 4.69 | Cc1ccc(C(=O)COc2c(C(=O)c3ccc(Cl)c(C)c3Cl)c(C)nn2C)cc1
3 | 2.85 | O=C1C=C(N2CC=CC2)C(=O)c2ccccc21
4 | 3.12 | CN(C(=S)c1ccccc1)c1ccccc1
5 | 2.35 | CCOC(=O)CC(=O)C=Cc1ccc2c(c1)OCO2
6 | 1.71 | CS(=O)(=O)ON1C(=O)c2ccc([N+](=O)[O-])cc2C1=O
7 | 0.1 | Cc1cc(=O)cc(C)o1
8 | 3.65 | CCOC(=O)COC(=O)c1cc(Oc2ccc(C(F)(F)F)cc2Cl)ccc1[N+](=O)[O-]
9 | -0.8 | CN(C)/C=C/[N+](=O)[O-]
10 | 1.93 | CCCCCCn1cc(C)c(=O)[nH]c1=O
11 | -0.35 | CNC(=O)CNC(=O)CCc1ccc(S(=O)(=O)N(C)C)cc1
12 | 2.4 | O=C1c2ccccc2C(=O)N1c1ccccc1
13 | -0.06 | CC(=O)N[C@@H](CC(C)C)C(=O)N[C@@H](CCCNC(=N)N)C(=O)N[C@@H](Cc1ccccc1)C(N)=O
14 | 1.95 | O=[N+]([O-])c1ccc(/C=N/O)cc1
15 | 2.09 | Cn1c(N)nc2cc(Cl)ccc21
16 | 2.55 | CN(C)C(=O)C12CC3CC(CC(C3)C1)C2

Row | logP | Compound
17 | 0.1 | CNC(=S)N(C)C
18 | 5.68 | CC1=C(/C=C/C(C)=C/C=C/C(C)=C/CO)C(C)(C)CCC1
19 | 1.03 | CN(C)C1=CC(=O)C(N(C)C)=CC1=O
20 | 2.87 | C=CCCC=C
21 | -0.3 | CN(C)C(=S)NN
22 | 0.98 | CCCCCn1cnc2c(NC(C)=O)ncnc21
23 | 3.03 | N#CCc1cccc(Oc2ccccc2)c1
24 | 2.24 | CC#CC#CC
25 | 0.57 | COc1ccc2[nH]c(N)nc2c1
26 | 0.52 | C/C=C/C(C)=O
27 | 0.77 | Fc1cccnc1
28 | 0.24 | Cc1ncc[nH]1
29 | 0.22 | Nc1ccccc1S(N)(=O)=O
30 | 3.64 | CCCCCCCCCCCCCCc1cccc(N2C(N)=NC(N)=NC2(C)C)c1
31 | 2.83 | CC(=S)N(c1ccccc1)c1ccccc1
32 | 0.92 | CN1CCCC1

Row | Compound | logP
33 | O=C1C(=O)c2ccccc2-c2ccccc21 | 2.52
34 | COc1ccc(CC#N)cc1OC | 1.15
35 | COP(=S)(OC)SCC(=O)N(C)C=O | 1.48
36 | C=CCOC(C)=O | 0.97
37 | N#Cc1cccc(C#N)c1 | 0.8
38 | CN(C)c1ccc(C(=O)c2ccc(N(C)C)cc2)cc1 | 3.87
39 | CCOC(=O)C(Cl)(Cl)Cl | 2.39
40 | CCN(CC)c1c([N+](=O)[O-])cc(C(F)(F)F)c(N)c1[N+](=O)[O-] | 4.3
41 | COC1=C(N2CC2)C(=O)C(OC)=C(N2CC2)C1=O | 0.17
42 | c1ccc(P(c2ccccc2)c2ccccc2)cc1 | 5.69
43 | O=[N+]([O-])c1ccc(Nc2ccccc2)cc1 | 3.74

same assay, conditions: pH 1.0

Row | logD | Compound
44 | 0.67 | CC(C)(CCC(=O)O)C(=O)O

same assay, conditions: pH 2.1

Row | logD | Compound
45 | 0 | CC(=O)Nc1ccc(S(N)(=O)=O)cc1
46 | 2.93 | CCCCCCOc1ccc(S(N)(=O)=O)cc1

same assay, conditions: pH 5.0

Row | logD | Compound
47 | 2.13 | Sc1nc(-c2ccccc2)ns1
48 | 0.3 | c1n[nH]c2c1CC[C@H]1c3[nH]ncc3CC[C@H]21

same assay, conditions: pH 7.0

Row | logD | Compound
49 | 1.02 | COc1ccc2c(c1OC)-c1ccc(OC)c(=O)cc1[C@@H](NC(C)=O)CC2

same assay, conditions: pH 7.4

Row | logD | Compound
50 | 0.58 | Cc1ncc([N+](=O)[O-])n1CC(O)CCl (stereo not drawn)
51 | 1.94 | CCCc1ncc([N+](=O)[O-])n1CCNC(=S)OC
52 | 2.19 | Fc1cccc2cccnc12
53 | 1.64 | Cc1ccc(C=Cc2ncc([N+](=O)[O-])n2C)cc1
54 | 2.18 | Cc1[nH]ccc2c1[nH]c1cc(=O)ccc12
55 | 1.29 | OCc1ccc2cccnc2c1
56 | 1.82 | CNc1nc2c3cccnc3ccc2n1C

Row | Compound | logD
57 | c1ccc(C23CCCN2CCO3)cc1 (stereo not drawn) | 1.04
58 | CS(=O)c1ccc2c(c1)C(c1ccccc1)=NCC(=O)N2 (stereo not drawn) | 0.8

same assay, conditions: pH 9.2

Row | Compound | logD
59 | C=CCOC(Cn1ccnc1)c1ccc(Cl)cc1Cl (stereo not drawn) | 3.82

same assay, conditions: pH 13.0

Row | logD | Compound
60 | 0.08 | NCCN1CCCC1
61 | 0.79 | OCCNCc1ccccc1
62 | -0.62 | CNCCNC
63 | 1.82 | CCc1cc(Cc2cnc(N)nc2N)cc(CC)c1N
